# Results published in article PMC6983056, “Carbazole Alkaloids from Clausena anisum-olens: Isolation, Characterization, and Anti-HIV Evaluation” (Molecules, 2019).
# Assays:
# HIV-1 = tested on: HIV-1; parameters: method as in PMID 16177980; settings: cited from earlier work
# [1] = tested on: HIV replication in H9 lymphocytes; parameters: method as in PMID 31109016, PMID 10021911; settings: cited from earlier work
# [2] = tested on: human immunodeficiency virus type-1 integrase; settings: cited from earlier work
# [3] = tested on: HIV-1NL4-3 Nanoluc-sec virus; test: microbe, parasite or virus in culture; assay type: cell-based; settings: for EC50: Human immunodeficiency virus 1, NL43, MT4, 72 h, read-out: EC50 (μg/mL) NL4-3; for selective anti-HIV activity (class symbol printed in EC50 column): CC50/EC50 criterion
# From the text: MT4 cells (1 × 10^5 cells mL^−1) in 96 well plates were infected by HIV-1 NL4-3 Nanoluc-sec at a dose of 50 TCID50/well in the presence of each test compound at various concentrations. On Day 3 post-infection, supernatants were collected and assayed for luciferase activity using the Nano-Glo Luciferase Assay System (Promega, Madison, WI, USA). The antiviral potency was defined as the compound concentration that reduces the luciferase activity by 50% (EC50).
# [4] = CytoTox-Glo cytotoxicity assay against MT4 cells; assay type: cell-based; settings: human, 50% cytotoxic concentration, MT-4 cells, read-out: CC50 (μg/mL) MT4
# Protocol: The cytotoxicity of the compound against MT4 cells was assessed using a CytoTox-Glo cytotoxicity assay (Promega, Madison, WI, USA). MT-4 cells were cultured in the presence of various concentrations of each test compound for 3 days, and the 50% cytotoxic concentration (CC50) causing a 50% reduction of cell viability was determined by following the manufacturer’s protocol.
# [5] = tested on: HIV replication in C8166 cells; parameters: method as in PMID 15771893; settings: in vitro; cited from earlier work
# HIV [6] = tested on: HIV; parameters: method as in PMID 10757740; settings: XTT-tetrazolium assay; cited from earlier work
# HIV [7] = settings: cited from earlier work
molecule,measurement,setting,value
"COc1ccc2c(c1)[nH]c1cc(OC)c(C=O)cc12 [3-formyl-2,7-dimethoxycarbazole]",anti-HIV-1 effects EC50,HIV-1,7.4 µg/mL
same,potential therapeutic index (PTI),HIV-1,8.0
"COc1cc2c(c3cnccc13)c1ccccc1n2C [5-methoxy-7-methyl-7H-pyrido[4,3-c]carbazole]",therapeutic index (TI),[1]; H9 lymphocytes,503
same,"EC50, inhibition of HIV replication in H9 lymphocytes",[1],0.0054 µg/mL
"Cc1cc2c(c3c1[nH]c1cc(Cl)c(O)cc13)C(=O)N(CCN(C)C)C2=O [8-Chloro-2-[2-(dimethylamino)ethyl]-9-hydroxy-5-methylpyrrolo[3,4-c]carbazole-1,3(2H,6H)-dione]",strand-transfer inhibitory activity,[2],potent strand-transfer inhibitory activity
"Cc1cn([C@H]2C[C@H](N=[N+]=[N-])[C@@H](CO)O2)c(=O)[nH]c1=O [AZT, azidothymidine]",EC50,[3],0.0055 ± 0.0018 µg/mL
same,CC50 at 3 days,[4],> 0.1 µg/mL
"COC(=O)c1cc2c(cc1C)[nH]c1ccccc12 [Compound 1, 2-methyl-9H-carbazole-3-methyl carboxylate]",TI (CC50/EC50; SI in text),[3]; CC50 MT4 / EC50 NL4-3,7.1
same,EC50,[3],2.4 ± 0.53 µg/mL
same,CC50 at 3 days,[4],17 ± 2.5 µg/mL
"COc1ccc(OC)c2c1[nH]c1cc(O)c(C)cc12 [Compound 2, 5,8-dimethoxy-3-methyl-9H-carbazol-2-ol]",EC50,[3],3.7 µg/mL
same,CC50 at 3 days,[4],15.2 ± 3.1 µg/mL
"COc1ccc2c(c1)[nH]c1ccc(C(=O)O)cc12 [Compound 3, clausine N]",selective anti-HIV activity (class symbol printed in EC50 column),[3],*- ^d (no selective anti-HIV activity (CC50/EC50 < 5))
"CC1(C)C=Cc2c(c(C=O)cc3c2[nH]c2c(O)cccc23)O1 [Compound 4, heptazolicine]",selective anti-HIV activity (class symbol printed in EC50 column),[3],*- ^d (no selective anti-HIV activity (CC50/EC50 < 5))
"CC1(C)C=Cc2c(ccc3c2[nH]c2cc(O)c(C=O)cc23)O1 [Compound 5, clauszoline B]",selective anti-HIV activity (class symbol printed in EC50 column),[3],*- ^d (no selective anti-HIV activity (CC50/EC50 < 5))
"O=Cc1ccc2[nH]c3cc(O)ccc3c2c1 [Compound 7, 7-dihydroxy-9H-carbazole-3-carboxaldehyde]",EC50,[3],> 25 µg/mL
same,CC50 at 3 days,[4],> 25 µg/mL
"COc1ccc2[nH]c3c(O)cc(C=O)cc3c2c1 [Compound 8, clausine I]",selective anti-HIV activity (class symbol printed in EC50 column),[3],*- ^d (no selective anti-HIV activity (CC50/EC50 < 5))
COc1cc2[nH]c3ccccc3c2cc1C=O [O-methylmukonal],anti-HIV-1 effects EC50,HIV-1,2.7 µg/mL
same,potential therapeutic index (PTI),HIV-1,56.7
COc1ccc2c(c1)[nH]c1cc(OC)c(C(=O)O)cc12 [clauszoline-J],anti-HIV-1 effects EC50,HIV-1,8.2 µg/mL
same,potential therapeutic index (PTI),HIV-1,1.6
COc1ccc2[nH]c3cc(O)c(C)cc3c2c1CC=C(C)C [glybomine B],"IC50, inhibition of HIV replication in C8166 cells",[5],9.73 µg/mL
Cc1cc2c(cc1O)[nH]c1ccc3c(c12)C=CC(C)(C)O3 [glycoborinine],"IC50, inhibition of HIV replication in C8166 cells",[5],4.47 µg/mL
CC(C)=CCc1cc2c(cc1O)[nH]c1ccc(C)cc12 [siamenol],HIV-inhibitory activity EC50,HIV [6],2.6 µg/mL
same,maximum protection,HIV [6],50–60%
C[C@@]1(C(=O)O)[C@@H](O)CC[C@]2(C)c3cc4c(cc3CC[C@@H]12)[nH]c1ccccc14 [xiamycin],anti-HIV activity,HIV [7],selective anti-HIV activity
clausine-O [Compound 6],selective anti-HIV activity (class symbol printed in EC50 column),[3],*- ^d (no selective anti-HIV activity (CC50/EC50 < 5))
